Experiments:
GSPT1 [1] = molecular target: T1, GSPT1 (Homo sapiens, UniProt P15170+Q96SW2); experiment: GSPT1 protein reduction, western analysis, normal PBMCs; conditions: PBMC, 1 nM to 1000 nM, 20 hours
Procedure: PBMC were treated with 1 nM, 10 nM, 100 nM, or 1000 nM of Compound D or Compound E for 20 hours.

[2] = test system: ATF3, DDIT3, cleaved Caspases, cleaved PARP; experiment: UPR and apoptosis pathway components in KG1 cells; assay type: cell-based, human; conditions: KG1, 200 nM, 8 or 12 hours
Procedure: Cells were treated with DMSO alone or 200 nM Compound D. After 2, 4, or 6 hours, the expression levels of various cellular components along UPR or apoptosis pathways were measured. […] Reduction of BIP indicates UPR.
(§1) Cells were treated with DMSO alone, 200 nM Compound D, or 200 nM Compound E. After 8 or 12 hours, the expression levels of various cellular components along UPR or apoptosis pathways were measured. […] Reduction of BIP indicates UPR.
(§2) To further investigate the timeline of cellular events upon Compound D treatment, KG1 cells were treated with DMSO alone or 200 nM Compound D. At 2, 4, 6, 8, 10, or 12 hours, the expression levels of various cellular components along ATF4 or apoptosis pathways were measured.

KG-1 cells = experiment: Anti-proliferation CTG assay, KG-1; assay type: cell-based, human; conditions: KG1 parental or control shRNA cells, 0.0001 μM to 1 μM, two days
Procedure: The effect of depletion of GSPT1 on the anti-proliferative effect of compound Compound D and Compound E was also determined in human acute myelogenous leukemia cell lines AML and KG1. […]

U-937 cells = experiment: Anti-proliferation CTG assay, U-937; assay type: cell-based, human; conditions: 48 hours
Procedure: (§3) A plethora of AML cell lines were treated with serial dilutions of Compound D. IC50 value of the anti-proliferation effect of Compound D (as determined in 72-hour CTG assays) in each cell line is summarized in Table 1.
(§4) The effect of overexpression of GSPT1 on the anti-proliferative effect of Compound D and Compound E was determined in human histiocytic lymphoma cell line U937 and human leukemia cell line MOLM13. Treatment compounds (e.g., Compound D or Compound E) were titrated from 0.001 μM to 10 μM. Cell proliferation was measured by CellTiter-Glo cell viability assay at 48 hours after treatment. […] However, when exogenous GSPT1 was overproduced via the EF1α promoter, as shown in FIGS. 5A-5D, the anti-proliferative effect of Compound D and Compound E reduced.

OCI-AML3 cells = experiment: Anti-proliferation CTG assay, OCI-AML3; assay type: cell-based, human; conditions: AML3 parental or control shRNA cells, 0.0001 μM to 1 μM, two days
Procedure: as §3
The effect of depletion of GSPT1 on the anti-proliferative effect of compound Compound D and Compound E was also determined in human acute myelogenous leukemia cell lines AML and KG1. Cells were infected with lentiviral vectors expressing control shRNA, shGSPT1-1 or shGSPT1-3 for 7 days and then treated with DMSO, Compound D or Compound E in a titration from 0.0001 μM to 1 μM. Two days after treatment, cell proliferation was measured by CellTiter-Glo cell viability. […] Both shGSPT1-1 and shGSPT1-3 reduced the expression of GSPT1, eRF1, and slightly of CRBN.

MOLM-13 cells = experiment: Anti-proliferation CTG assay, MOLM-13; assay type: cell-based, human; conditions: 48 hours
Procedure: as §3, §4

GSPT1 [3] = molecular target: T1, GSPT1; experiment: GSPT1 protein reduction, western analysis, KG-1; assay type: cell-based; design: reduction in GSPT1 protein level was evaluated in human normal PBMCs; endogenous in cells; host or cells: primary PBMCs from normal donors (ID 4328, 4379) and AML patients (ID 11SH, 09P6); conditions: KG1, 200 nM, 8 or 12 hours
Procedure: as §1, §2
In two sensitive AML cell lines, KG-1 and HL-60, both a concentration-dependent decrease in GSPT1 protein and an increase in RNA expression of ATF3, CHOP, and SRSF3 and SRSF6 NMD transcripts at the 8-hour time point were compared to caspase 3/7 activation (apoptosis) at the 24-hour (FIG. 30A [KG-1]; FIG. 30C [HL-60]) and 48-hour (FIG. 30B [KG-1]; FIG. 30D [HL-60]) time points.
The reduction in the level of GSPT1 protein was concentration-dependent over the range of 3 to 1000 nM in eight of the nine AML cell lines and over the range of 300 to 1000 nM in one relatively insensitive AML cell line. The time course of the reduction in GSPT1 by Compound D also was studied for up to 48 hours. The progressive degradation of GSPT1 over the course of 1 to 20 hours was evident in the presence of all concentrations of Compound D studied from 3 to 300 nM in HNT-34, HL-60, and ML-2 cells, with little GSPT1 remaining by 20 hours at 100 or 300 nM Compound D in HNT-34 or HL-60 cells (FIG. 34 and FIG. 35C). Time-dependent reduction in GSPT1 was also observed in KG-1 and OCI-AML2 cells at 3 to 1000 nM Compound D, with little GSPT1 remaining in KG-1 cells at 100 to 300 nM at 24 hours or in OCI-AML2 cells at 300 and 1000 nM at 24 hours (FIG. 35D). Loss of GSPT1 occurred more slowly in Kasumi-1, AML-193, and F36-P cells.
Compound D-mediated GSPT1 reduction at 8 hours was compared to induction of caspase 3/7 activation (apoptosis) at 12, 24, and 48 hour time points in these nine AML cell lines. […] A positive association (r^2=0.50; R=0.71; p value=4.86E-002) was observed between the level of GSPT1 reduction and apoptosis induction in the AML cell panel (FIG. 36), with >90% GSPT1 reduction correlating with induction of apoptosis.

[4] = test system: translational readthrough; experiment: AML2 readthrough assay (Fluc/Nluc-G36A reporter), OCI-AML2; assay type: cell-based, human; conditions: 300 μg/ml G418 or 200 nM Compound D
Procedure: (§5) It is known that amino acid starvation causes GCN2 activation, which phosphorylates eIF2α. Because GSPT1 mediates normal translation termination, it is hypothesized that depletion of GSPT1 by Compound D may cause readthrough of stop codons. Whether the translational readthrough induced by Compound D contributes to the increased levels of p-eIF2α was investigated. OCI-AML2 cells stably expressing the Fluc/Nluc-G36A readthrough reporter were treated with 300 μg/ml G418 or 200 nM Compound D for 2, 4, 6, 8, 10, 12, or 16 hours. The levels of p-eIF2α were measured by immunoblot analysis. AML2 readthrough assay was conducted to measure the readthrough reporter.

p-eIF2α = p-eIF2α immunoblot, OCI-AML2; assay type: cell-based, human; conditions: 300 μg/ml G418 or 200 nM Compound D
Procedure: as §5

IKZF1 = IKZF1 (Homo sapiens, UniProt Q13422+Q96SW2)
Chain of IKZF1 (Q13422 whole entry): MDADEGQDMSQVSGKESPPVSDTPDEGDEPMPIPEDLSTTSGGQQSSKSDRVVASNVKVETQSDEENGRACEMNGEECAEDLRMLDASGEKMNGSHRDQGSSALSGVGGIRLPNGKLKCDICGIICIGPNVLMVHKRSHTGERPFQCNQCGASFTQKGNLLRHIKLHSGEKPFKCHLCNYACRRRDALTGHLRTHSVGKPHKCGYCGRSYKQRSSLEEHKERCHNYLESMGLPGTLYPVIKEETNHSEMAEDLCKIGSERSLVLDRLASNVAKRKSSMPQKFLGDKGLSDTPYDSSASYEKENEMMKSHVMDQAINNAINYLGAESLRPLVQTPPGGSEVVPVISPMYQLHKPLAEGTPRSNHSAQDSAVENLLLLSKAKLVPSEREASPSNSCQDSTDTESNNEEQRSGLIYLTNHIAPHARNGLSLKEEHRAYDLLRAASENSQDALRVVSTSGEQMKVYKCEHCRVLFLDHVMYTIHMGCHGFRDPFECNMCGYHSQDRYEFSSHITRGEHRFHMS
Chain of IKZF1 (Q96SW2 whole entry): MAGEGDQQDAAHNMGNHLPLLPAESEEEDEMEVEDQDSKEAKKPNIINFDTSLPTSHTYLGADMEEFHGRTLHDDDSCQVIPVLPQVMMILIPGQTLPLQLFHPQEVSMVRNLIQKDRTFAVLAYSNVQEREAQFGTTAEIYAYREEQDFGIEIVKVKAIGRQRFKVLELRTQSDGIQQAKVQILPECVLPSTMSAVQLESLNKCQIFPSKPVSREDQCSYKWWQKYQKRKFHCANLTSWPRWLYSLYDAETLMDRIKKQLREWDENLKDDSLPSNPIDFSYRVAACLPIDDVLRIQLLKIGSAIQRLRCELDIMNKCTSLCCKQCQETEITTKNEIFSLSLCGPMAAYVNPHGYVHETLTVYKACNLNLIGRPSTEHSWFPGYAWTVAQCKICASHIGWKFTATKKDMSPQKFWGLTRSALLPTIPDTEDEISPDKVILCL
Chain of IKZF1 (Q16531 whole entry partner): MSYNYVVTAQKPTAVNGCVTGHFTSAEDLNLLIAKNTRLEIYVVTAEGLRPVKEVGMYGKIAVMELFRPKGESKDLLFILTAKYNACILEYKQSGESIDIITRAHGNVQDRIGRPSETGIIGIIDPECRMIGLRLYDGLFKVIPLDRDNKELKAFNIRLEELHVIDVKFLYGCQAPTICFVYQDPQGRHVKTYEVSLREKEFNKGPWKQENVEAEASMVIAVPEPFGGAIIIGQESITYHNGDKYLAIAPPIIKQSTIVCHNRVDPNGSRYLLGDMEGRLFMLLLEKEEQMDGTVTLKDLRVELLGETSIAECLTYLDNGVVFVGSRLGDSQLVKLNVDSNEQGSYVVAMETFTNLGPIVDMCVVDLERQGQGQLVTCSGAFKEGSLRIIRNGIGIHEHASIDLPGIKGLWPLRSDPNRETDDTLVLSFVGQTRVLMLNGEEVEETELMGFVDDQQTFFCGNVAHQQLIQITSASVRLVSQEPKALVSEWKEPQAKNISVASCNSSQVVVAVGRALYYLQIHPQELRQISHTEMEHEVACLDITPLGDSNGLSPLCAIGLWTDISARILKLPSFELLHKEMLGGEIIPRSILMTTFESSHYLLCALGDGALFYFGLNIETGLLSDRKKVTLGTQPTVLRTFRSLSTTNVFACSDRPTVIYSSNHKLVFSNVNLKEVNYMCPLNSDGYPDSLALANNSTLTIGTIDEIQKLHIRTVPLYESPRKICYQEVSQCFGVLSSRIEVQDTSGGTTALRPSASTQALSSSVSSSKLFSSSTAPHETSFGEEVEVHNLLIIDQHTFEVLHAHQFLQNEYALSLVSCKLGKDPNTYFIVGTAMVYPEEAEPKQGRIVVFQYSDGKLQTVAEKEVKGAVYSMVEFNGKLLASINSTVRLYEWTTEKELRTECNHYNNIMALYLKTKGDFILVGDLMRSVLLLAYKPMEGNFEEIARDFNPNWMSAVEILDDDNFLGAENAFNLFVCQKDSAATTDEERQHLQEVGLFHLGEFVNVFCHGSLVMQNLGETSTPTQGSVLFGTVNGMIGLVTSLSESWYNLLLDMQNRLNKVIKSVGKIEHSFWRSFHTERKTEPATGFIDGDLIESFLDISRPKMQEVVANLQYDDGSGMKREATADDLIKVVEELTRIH

GSPT1 [5] = molecular target: T1, GSPT1; experiment: GSPT1 degradation in NB4 cell line; assay type: cell-based; design: endogenous in cells

T1 sequence (P15170 1-637 isoform P15170-3): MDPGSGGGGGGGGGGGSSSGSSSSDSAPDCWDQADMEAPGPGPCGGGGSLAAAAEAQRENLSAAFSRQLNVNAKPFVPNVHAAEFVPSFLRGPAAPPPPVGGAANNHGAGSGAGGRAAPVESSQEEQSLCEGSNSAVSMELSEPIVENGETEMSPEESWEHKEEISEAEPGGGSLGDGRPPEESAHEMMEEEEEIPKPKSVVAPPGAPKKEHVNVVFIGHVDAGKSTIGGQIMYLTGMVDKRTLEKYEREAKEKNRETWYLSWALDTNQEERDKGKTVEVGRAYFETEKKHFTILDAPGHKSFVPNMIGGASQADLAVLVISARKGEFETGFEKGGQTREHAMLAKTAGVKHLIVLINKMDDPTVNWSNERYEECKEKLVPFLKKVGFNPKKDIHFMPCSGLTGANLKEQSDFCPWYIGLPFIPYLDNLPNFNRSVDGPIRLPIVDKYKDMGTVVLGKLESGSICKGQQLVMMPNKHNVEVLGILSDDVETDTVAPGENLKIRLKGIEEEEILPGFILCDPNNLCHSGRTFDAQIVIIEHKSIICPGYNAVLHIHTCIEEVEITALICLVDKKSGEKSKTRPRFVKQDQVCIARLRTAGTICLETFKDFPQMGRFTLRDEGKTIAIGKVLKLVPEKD
T1 sequence (Q96SW2 whole entry): as the sequence (Q96SW2 whole entry) above
T1 sequence (Q16531 whole entry partner): as the sequence (Q16531 whole entry partner) above

## O=C1CCC(N2Cc3cc(CNC(=O)C(F)(F)c4ccc(F)cc4)ccc3C2=O)C(=O)N1 (stereo not shown) [Compound E, N-((2-(2,6-dioxopiperidin-3-yl)-1-oxoisoindolin-5-yl)methyl)-2,2-difluoro-2-(4-fluorophenyl)acetamide]
GSPT1 [1]
  expression of GSPT1: decreased the expression of GSPT1
[2]
  level of ATF3, DDIT3, cleaved Caspase-3, cleaved Caspase-8, and cleaved PARP: increased the level
KG-1 cells
  cell proliferation (CellTiter-Glo): exhibited anti-proliferative effect, particularly at high concentration
U-937 cells; U937 CRBN -/- cells
  anti-proliferative effect: completely abolished
U-937 cells; U937 parental cells, 0.001 μM to 10 μM
  cell proliferation (CellTiter-Glo): inhibited cell proliferation
OCI-AML3 cells
  cell proliferation (CellTiter-Glo): exhibited anti-proliferative effect, particularly at high concentration
MOLM-13 cells; MOLM13 CRBN -/- cells
  anti-proliferative effect: completely abolished
MOLM-13 cells; MOLM13 parental cells, 0.001 μM to 10 μM
  cell proliferation (CellTiter-Glo): inhibited cell proliferation
GSPT1 [3]
  degradation of GSPT1: induced degradation

## CN[C@@H]1[C@@H](O)[C@@H](O[C@@H]2[C@@H](O)[C@H](O[C@H]3O[C@H]([C@@H](C)O)[C@@H](O)[C@H](O)[C@H]3N)[C@@H](N)C[C@H]2N)OC[C@]1(C)O [Compound G418, G418, reference compound]
[4]
  translational readthrough: induced translational readthrough at a comparable level
p-eIF2α
  levels of p-eIF2α: little effect

## Nc1cccc2c1C(=O)N(C1CCC(=O)NC1=O)C2=O (stereo not shown) [pomalidomide, reference compound]
IKZF1
  effect on IKZF1 level: induced degradation of IKZF1 at much lower concentrations than Compound D
GSPT1 [5]
  effect on GSPT1 level: no significant effect

Source: US12474342B2, “Methods for treating cancer and the use of biomarkers as a predictor of clinical sensitivity to therapies” (CELGENE CORPORATION, priority 2016, dated 2025)
